Experiments:
[1] = biological target: Dual specificity mitogen-activated protein kinase kinase 1 (Homo sapiens) (UniProt Q02750); assay: Inhibition of recombinant human N-terminal GST-tagged/C-terminal His6-tagged full-length MEK1 expressed in Escherichia coli at 2 uM using MBP as substrate relative to control
[2] = biological target: Tyrosine-protein kinase receptor UFO (Homo sapiens) (UniProt P30530); assay: Inhibition of recombinant N-terminal His6-tagged human AXL (473 to end residues) expressed in Sf21 insect cells at 2 uM using Axl-tide as substrate relative to control
[3] = biological target: Tyrosine-protein kinase Fes/Fps (Homo sapiens) (UniProt P07332); assay: Inhibition of recombinant human N-terminal His6-tagged FES (561 to end residues) expressed in baculovirus infected Sf21 insect cells at 2 uM using poly (Glu,Tyr) (4:1) as substrate relative to control
Homo sapiens = species on record: Homo sapiens; assay: Selectivity ratio of IC50 for inhibition of recombinant human N-terminal GST/His-tagged PDE3A (669 to 1141 residues) expressed in baculovirus infected Sf9 insect cells to IC50 for inhibition of c-MET in human SNU-5 cells
[4] = Inhibition of PI3K (unknown origin); set-up: species or system Homo sapiens
[5] = biological target: Epidermal growth factor receptor (Homo sapiens) (UniProt P00533); assay: Inhibition of recombinant human N-terminal GST-tagged EGFR (696 to end residues) expressed in baculovirus infected Sf21 insect cells at 2 uM using angiotensin II peptide as substrate relative to control
[6] = biological target: Mitogen-activated protein kinase 11 (Homo sapiens) (UniProt Q15759); assay: Inhibition of recombinant human N-terminal GST-tagged full-length p38beta2 expressed in Escherichia coli at 2 uM using MBP as substrate relative to control
[7] = biological target: High affinity nerve growth factor receptor (Homo sapiens) (UniProt P04629); assay: Inhibition of recombinant human N-terminal His6-tagged TRKA (440 to end residues) expressed in baculovirus infected Sf21 insect cells at 2 uM using KKKSPGEYVNIEFG as substrate relative to control
[8] = biological target: Proto-oncogene tyrosine-protein kinase Src (Homo sapiens, UniProt P12931); assay: Inhibition of SRC (unknown origin)
[9] = biological target: Vascular endothelial growth factor receptor 2 (Homo sapiens, UniProt P35968); assay: Inhibition of KDR (unknown origin)
[10] = biological target: Ribosomal protein S6 kinase alpha-2 (Homo sapiens) (UniProt Q15349); assay: Inhibition of recombinant human N-terminal full-length His6-tagged RSK3 ([…]) expressed in Sf21 insect cells at 2 uM using MAPKAP Kinase 2 as substrate relative to control
[11] = biological target: Serine/threonine-protein kinase Sgk1 (Homo sapiens) (UniProt O00141); assay: Inhibition of SGK (unknown origin) at 2 uM relative to control
[12] = biological target: Serine/threonine-protein kinase Chk1 (Homo sapiens) (UniProt O14757); assay: Inhibition of recombinant human N-terminal GST-tagged full-length CHK1 expressed in Sf21 insect cells at 2 uM using CHKtide as substrate relative to control
[13] = biological target: Hepatocyte growth factor receptor (Homo sapiens, UniProt P08581); assay: Inhibition of c-MET in human SNU-5 cells measured after 6 hrs by steady-glo luciferase reporter gene assay; format: cell-based
[14] = biological target: Receptor-interacting serine/threonine-protein kinase 2 (Homo sapiens) (UniProt O43353); assay: Inhibition of recombinant human N-terminal His6-tagged RIPK2 (1 to 299 residues) expressed in baculovirus infected Sf21 insect cells at 2 uM using MBP as substrate relative to control
[15] = biological target: Dual specificity mitogen-activated protein kinase kinase 6 (Homo sapiens) (UniProt P52564); assay: Inhibition of recombinant human N-terminal MBP-tagged MKK6 (4 to end residues) expressed in Escherichia coli at 2 uM using p38alpha/SAPK2a.as substrate relative to control
[16] = biological target: Proto-oncogene tyrosine-protein kinase receptor Ret (Homo sapiens) (UniProt P07949); assay: Inhibition of recombinant human N-terminal GST-tagged RET (658 to end residues) expressed in baculovirus infected Sf21 insect cells at 2 uM using IFG1Rtide as substrate relative to control
[17] = tested on: RAF proto-oncogene serine/threonine-protein kinase (Homo sapiens), P04049 [Y340D,Y341D]; assay: Inhibition of recombinant human N-terminal GST-tagged c-RAF Y340D/Y341D mutant (306 to 648 residues) expressed in Sf9 insect cells at 2 uM using MEK1(K97R) as substrate relative to control
[18] = biological target: Protein kinase C beta type (Homo sapiens) (UniProt P05771); assay: Inhibition of recombinant human N-terminal His6-tagged PKCbeta2 (2 to end residues) expressed in Sf21 insect cells at 2 uM using Histone H1 as substrate relative to control
[19] = biological target: Calcium/calmodulin-dependent protein kinase type II subunit beta (Homo sapiens) (UniProt Q13554); assay: Inhibition of recombinant human N-terminal His6-tagged CAMK2beta (1 to 315 residues) expressed in baculovirus infected Sf21 insect cells at 2 uM using ZIPtide as substrate relative to control
[20] = biological target: Tyrosine-protein kinase Fyn (Homo sapiens) (UniProt P06241); assay: Inhibition of recombinant human N-terminal His6-tagged full-length FYN expressed in baculovirus infected Sf21 insect cells at 2 uM using Src peptide as substrate relative to control
[21] = biological target: Inhibitor of nuclear factor kappa-B kinase subunit alpha (Homo sapiens) (UniProt O15111); assay: Inhibition of IKKa (unknown origin) at 2 uM relative to control
[22] = Unbound intrinsic clearance in human hepatocytes assessed per million cells; format: ADME, cell-based, Hepatocyte
[23] = biological target: Serine/threonine-protein kinase PAK 2 (Homo sapiens) (UniProt Q13177); assay: Inhibition of recombinant human N-terminal/C-terminal His6-tagged full-length PAK2 (3 to end residues) expressed in Escherichia coli at 2 uM using long S6 Kinase peptide as substrate relative to control
[24] = biological target: Tyrosine-protein kinase JAK2 (Homo sapiens, UniProt O60674); assay: Inhibition of JAK2 (unknown origin)
[25] = biological target: MAP kinase-activated protein kinase 5 (Homo sapiens) (UniProt Q8IW41); assay: Inhibition of recombinant human N-terminal His6-tagged full-length PRAK expressed in baculovirus infected Sf21 insect cells at 2 uM using PRAK substrate peptide relative to control
[26] = biological target: cGMP-inhibited 3',5'-cyclic phosphodiesterase 3A (Homo sapiens, UniProt Q14432); assay: Inhibition of recombinant human N-terminal GST/His-tagged PDE3A (669 to 1141 residues) expressed in baculovirus infected Sf9 insect cells using iFL-cAMP as substrate preincubated for 15 mins followed by substrate addition and measured after 40 mins by fluorescence assay
[27] = biological target: Insulin receptor-related protein (Homo sapiens) (UniProt P14616); assay: Inhibition of recombinant human N-terminal His6-tagged IRR (944 to 1266 residues) expressed in baculovirus infected Sf21 insect cells at 2 uM using MBP (13-104) as substrate relative to control

Dual specificity mitogen-activated protein kinase kinase 6 (Homo sapiens), sequence (P52564 whole entry): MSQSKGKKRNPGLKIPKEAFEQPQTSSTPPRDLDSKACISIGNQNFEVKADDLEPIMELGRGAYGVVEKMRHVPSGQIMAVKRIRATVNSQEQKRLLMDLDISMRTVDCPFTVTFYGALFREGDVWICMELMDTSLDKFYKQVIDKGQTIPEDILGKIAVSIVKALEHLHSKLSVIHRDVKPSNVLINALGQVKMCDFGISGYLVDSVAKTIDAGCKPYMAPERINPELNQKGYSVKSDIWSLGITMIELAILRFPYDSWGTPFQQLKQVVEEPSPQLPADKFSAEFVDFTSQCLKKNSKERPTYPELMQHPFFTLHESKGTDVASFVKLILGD
Hepatocyte growth factor receptor, sequence (P08581 whole entry, the tested form may be a part): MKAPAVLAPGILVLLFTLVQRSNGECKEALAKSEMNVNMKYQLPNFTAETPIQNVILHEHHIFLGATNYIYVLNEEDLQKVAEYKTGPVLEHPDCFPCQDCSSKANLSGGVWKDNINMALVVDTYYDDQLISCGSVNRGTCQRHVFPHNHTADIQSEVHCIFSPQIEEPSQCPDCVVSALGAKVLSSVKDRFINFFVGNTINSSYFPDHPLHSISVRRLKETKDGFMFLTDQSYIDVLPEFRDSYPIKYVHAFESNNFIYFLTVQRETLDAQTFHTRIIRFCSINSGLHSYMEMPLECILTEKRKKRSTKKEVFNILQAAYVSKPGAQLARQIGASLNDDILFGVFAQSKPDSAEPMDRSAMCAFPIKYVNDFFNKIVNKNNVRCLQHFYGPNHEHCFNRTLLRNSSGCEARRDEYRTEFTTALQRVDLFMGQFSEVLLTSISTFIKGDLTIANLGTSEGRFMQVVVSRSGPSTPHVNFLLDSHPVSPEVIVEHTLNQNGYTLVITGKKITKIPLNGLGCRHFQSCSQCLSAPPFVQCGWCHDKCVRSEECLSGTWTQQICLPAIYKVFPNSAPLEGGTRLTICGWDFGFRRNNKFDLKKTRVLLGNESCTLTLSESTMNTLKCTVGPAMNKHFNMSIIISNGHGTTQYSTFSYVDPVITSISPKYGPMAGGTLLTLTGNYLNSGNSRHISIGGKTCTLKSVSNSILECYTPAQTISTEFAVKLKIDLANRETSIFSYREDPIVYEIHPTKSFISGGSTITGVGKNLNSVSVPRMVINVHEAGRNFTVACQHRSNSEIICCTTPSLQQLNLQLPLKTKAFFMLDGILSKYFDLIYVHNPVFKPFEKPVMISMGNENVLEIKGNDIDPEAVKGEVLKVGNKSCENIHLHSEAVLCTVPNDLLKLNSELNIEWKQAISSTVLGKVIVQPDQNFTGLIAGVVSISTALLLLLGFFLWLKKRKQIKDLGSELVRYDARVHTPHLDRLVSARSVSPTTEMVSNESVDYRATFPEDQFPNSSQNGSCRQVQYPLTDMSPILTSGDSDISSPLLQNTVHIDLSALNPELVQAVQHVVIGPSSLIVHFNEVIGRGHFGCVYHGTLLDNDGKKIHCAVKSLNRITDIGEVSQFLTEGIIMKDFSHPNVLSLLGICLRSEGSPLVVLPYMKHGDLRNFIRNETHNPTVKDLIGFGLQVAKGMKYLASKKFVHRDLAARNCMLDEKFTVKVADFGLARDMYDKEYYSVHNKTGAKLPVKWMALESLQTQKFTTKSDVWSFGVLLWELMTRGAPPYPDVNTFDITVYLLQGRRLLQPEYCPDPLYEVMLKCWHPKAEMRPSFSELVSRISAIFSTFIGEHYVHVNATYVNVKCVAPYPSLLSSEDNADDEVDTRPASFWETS
Ribosomal protein S6 kinase alpha-2 (Homo sapiens), sequence (Q15349 whole entry): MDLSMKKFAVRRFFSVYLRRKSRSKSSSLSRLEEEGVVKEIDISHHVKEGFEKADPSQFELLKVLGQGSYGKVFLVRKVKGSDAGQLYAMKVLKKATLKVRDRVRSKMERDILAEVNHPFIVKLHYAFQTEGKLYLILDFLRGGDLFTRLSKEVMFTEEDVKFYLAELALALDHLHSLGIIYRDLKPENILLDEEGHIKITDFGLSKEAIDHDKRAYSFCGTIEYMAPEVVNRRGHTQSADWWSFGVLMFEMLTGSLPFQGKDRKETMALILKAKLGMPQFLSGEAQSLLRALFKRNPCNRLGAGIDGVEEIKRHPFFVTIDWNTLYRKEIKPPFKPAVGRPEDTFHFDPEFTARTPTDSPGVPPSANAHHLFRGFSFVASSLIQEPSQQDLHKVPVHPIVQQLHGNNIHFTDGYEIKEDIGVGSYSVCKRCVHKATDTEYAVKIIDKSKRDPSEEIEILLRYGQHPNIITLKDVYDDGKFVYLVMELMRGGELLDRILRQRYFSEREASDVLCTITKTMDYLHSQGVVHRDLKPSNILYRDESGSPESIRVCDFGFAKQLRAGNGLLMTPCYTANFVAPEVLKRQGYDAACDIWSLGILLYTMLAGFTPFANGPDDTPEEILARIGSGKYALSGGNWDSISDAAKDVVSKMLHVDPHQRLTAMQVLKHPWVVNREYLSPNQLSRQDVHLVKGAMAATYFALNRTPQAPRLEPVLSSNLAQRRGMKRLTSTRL
cGMP-inhibited 3',5'-cyclic phosphodiesterase 3A, sequence (Q14432 whole entry, the tested form may be a part): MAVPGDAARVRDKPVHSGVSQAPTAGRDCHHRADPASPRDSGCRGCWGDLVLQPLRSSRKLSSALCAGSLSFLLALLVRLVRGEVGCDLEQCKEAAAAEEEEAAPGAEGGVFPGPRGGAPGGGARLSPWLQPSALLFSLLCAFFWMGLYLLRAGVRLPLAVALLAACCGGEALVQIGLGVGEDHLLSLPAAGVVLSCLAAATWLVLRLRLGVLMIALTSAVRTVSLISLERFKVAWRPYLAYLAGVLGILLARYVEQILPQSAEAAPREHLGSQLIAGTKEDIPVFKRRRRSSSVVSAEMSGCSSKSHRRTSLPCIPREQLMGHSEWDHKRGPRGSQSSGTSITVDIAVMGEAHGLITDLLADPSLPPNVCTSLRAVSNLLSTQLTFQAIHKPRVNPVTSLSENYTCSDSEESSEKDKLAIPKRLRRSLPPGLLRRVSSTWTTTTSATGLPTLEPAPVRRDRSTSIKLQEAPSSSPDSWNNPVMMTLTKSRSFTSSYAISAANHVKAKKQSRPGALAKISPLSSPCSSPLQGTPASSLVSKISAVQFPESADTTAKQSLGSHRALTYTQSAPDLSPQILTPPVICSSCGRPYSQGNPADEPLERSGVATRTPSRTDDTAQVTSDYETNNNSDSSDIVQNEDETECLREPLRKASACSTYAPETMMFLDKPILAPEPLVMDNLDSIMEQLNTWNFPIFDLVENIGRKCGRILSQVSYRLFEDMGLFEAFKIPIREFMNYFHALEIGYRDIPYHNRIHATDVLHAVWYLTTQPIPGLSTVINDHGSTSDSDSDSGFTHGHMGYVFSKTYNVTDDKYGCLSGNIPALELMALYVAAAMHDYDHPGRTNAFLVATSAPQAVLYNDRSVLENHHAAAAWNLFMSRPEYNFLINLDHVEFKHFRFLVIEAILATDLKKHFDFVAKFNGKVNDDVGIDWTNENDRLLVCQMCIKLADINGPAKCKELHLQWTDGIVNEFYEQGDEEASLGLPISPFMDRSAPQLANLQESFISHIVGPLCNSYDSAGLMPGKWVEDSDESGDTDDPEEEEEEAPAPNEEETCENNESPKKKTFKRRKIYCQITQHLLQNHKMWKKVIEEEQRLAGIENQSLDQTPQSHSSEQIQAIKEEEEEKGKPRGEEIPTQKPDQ
Vascular endothelial growth factor receptor 2, sequence (P35968 whole entry): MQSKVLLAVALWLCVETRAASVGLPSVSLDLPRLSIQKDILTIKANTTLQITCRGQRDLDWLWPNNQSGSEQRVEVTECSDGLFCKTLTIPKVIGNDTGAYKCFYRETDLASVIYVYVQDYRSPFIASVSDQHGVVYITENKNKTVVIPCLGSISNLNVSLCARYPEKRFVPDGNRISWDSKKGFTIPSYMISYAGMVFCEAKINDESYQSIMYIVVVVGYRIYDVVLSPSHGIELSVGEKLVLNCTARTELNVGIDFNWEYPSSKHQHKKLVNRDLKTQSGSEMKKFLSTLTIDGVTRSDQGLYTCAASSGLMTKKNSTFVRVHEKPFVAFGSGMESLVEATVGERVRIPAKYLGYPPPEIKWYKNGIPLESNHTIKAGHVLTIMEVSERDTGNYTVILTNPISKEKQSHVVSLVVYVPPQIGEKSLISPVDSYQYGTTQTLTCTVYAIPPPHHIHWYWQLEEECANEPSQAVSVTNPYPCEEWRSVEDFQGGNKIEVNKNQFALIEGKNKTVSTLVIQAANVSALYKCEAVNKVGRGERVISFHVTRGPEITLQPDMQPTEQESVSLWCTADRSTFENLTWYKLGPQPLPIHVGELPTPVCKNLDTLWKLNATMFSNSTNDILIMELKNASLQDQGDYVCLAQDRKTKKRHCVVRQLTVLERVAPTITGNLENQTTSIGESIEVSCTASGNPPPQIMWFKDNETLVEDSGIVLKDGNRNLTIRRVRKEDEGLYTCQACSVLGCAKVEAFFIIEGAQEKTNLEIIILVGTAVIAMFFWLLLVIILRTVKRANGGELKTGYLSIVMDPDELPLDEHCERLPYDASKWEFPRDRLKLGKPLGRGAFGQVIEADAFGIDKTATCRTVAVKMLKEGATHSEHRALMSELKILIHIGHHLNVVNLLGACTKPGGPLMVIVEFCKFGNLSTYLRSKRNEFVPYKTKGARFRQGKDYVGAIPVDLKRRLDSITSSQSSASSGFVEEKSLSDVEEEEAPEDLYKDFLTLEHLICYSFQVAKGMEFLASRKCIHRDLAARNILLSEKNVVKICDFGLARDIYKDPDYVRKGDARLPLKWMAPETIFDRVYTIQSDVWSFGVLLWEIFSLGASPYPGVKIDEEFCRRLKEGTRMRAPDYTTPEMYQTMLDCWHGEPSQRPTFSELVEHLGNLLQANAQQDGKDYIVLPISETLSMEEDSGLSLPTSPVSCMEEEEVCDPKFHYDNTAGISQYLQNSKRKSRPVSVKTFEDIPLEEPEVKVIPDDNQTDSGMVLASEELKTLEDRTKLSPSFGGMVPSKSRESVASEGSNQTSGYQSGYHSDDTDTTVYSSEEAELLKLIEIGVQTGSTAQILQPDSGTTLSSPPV

Work on `C[C@@H](c1ccc2ncccc2c1)c1nnc2sc(-c3cnn(C)c3)nn12` yielded an inhibition [1] of under 50%, an inhibition [2] of under 50% and an inhibition [3] of under 50%. The Ratio IC50 (Homo sapiens) was 25, the Ki [4] was over 4 µM and the inhibition [5] was under 50%. For the same molecule, the inhibition [6] was under 50%, the inhibition [7] was under 50% and the Ki [8] was over 4 µM. The Ki [9] was over 4 µM, the inhibition [10] was under 50% and the inhibition [11] was under 50%. The inhibition [12] was under 50%, the IC50 [13] was 20 nM and the inhibition [14] was under 50%. For the same molecule, the inhibition [15] was under 50%, the inhibition [16] was under 50% and the inhibition [17] was under 50%. For the same molecule, the inhibition [18] was under 50%, the inhibition [19] was under 50% and the inhibition [20] was under 50%. It also gave an inhibition [21] of under 50%, a CL free [22] of 5.1 µL/min and an inhibition [23] of under 50%. For the same molecule, the Ki [24] was over 4 µM, the inhibition [25] was under 50% and the IC50 [26] was 500 nM. The inhibition [27] was under 50%.

From ChEMBL document CHEMBL4706768, “Discovery of Potent, Selective Triazolothiadiazole-Containing c-Met Inhibitors” (ACS Med Chem Lett, 2021)
